Test results: patent US20200354426A1 (MEDIMMUNE LIMITED, priority 2016, published 2020)
pEC50: −log10 of the molar value. Numbered stars: 1 amine (or outer) side, 2 acyl side, 3 side chain; on linkers, the order of the positions; unused ones are H or OH. Side chains are listed from the residue outwards. Peptide text beside a SMILES is read from it. * marks the point of attachment. γGlu = O=C(O)[C@H](CCC(=O)[*:2])N[*:1]; Palmitoyl = CCCCCCCCCCCCCCCC(=O)*; Ahx = NCCCCCC(=O)O; βAla = NCCC(=O)O

Key:
Test in all cases: cAMP activity assay in assay medium (assay 1)
Type in all cases: cell-based
Human GLP1R = Human GLP1R (Homo sapiens, UniProt P43220); design: expressed in transfected cells; conditions: assay medium; Table 4; read-out: hGLP1R EC50
Excerpt: (§1) Biological Activity of Peptides in Cell-Based cAMP Activity Assay (Assay 1):
(§2) All sample dilutions were made in duplicate.

Human GlucR = molecular target: T1, Human GlucR (Homo sapiens, UniProt P47871); conditions: assay medium; Table 4; read-out: hGlucR EC50
T1 construct: expressed in transfected cells
Excerpt: as §1, §2

Human GIPr = molecular target: T2, Human GIPr (Homo sapiens, UniProt P48546); conditions: assay medium; Table 4; read-out: hGIPR EC50
T2 construct: expressed in transfected cells
T2 sequence (P48546 22-466): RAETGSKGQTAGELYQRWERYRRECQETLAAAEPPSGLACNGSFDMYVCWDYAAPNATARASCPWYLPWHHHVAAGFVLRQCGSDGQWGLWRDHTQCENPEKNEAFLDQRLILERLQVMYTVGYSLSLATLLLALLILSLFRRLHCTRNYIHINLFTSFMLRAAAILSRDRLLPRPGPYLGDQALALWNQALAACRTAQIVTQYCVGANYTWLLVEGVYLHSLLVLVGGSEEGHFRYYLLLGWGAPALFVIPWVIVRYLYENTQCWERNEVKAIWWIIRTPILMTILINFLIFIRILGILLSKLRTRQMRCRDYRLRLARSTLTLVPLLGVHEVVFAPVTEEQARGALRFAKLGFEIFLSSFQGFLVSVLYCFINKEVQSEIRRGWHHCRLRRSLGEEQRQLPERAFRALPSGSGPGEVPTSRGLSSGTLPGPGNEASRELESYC
Excerpt: as §1, §2

T1 sequence (P47871 26-477): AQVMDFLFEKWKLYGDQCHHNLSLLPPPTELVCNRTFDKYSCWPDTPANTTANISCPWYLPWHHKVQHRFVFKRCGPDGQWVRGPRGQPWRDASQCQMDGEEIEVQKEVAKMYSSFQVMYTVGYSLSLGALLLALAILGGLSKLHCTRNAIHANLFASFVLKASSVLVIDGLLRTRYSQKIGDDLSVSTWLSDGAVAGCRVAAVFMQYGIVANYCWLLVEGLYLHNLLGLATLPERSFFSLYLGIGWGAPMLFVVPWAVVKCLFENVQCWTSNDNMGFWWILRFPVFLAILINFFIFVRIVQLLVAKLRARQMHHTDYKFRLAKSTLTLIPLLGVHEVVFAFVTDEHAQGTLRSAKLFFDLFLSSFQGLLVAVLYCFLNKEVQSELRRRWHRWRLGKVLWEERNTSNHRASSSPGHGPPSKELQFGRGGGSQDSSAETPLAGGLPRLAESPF
Chain of Human GLP1R (P43220 24-463): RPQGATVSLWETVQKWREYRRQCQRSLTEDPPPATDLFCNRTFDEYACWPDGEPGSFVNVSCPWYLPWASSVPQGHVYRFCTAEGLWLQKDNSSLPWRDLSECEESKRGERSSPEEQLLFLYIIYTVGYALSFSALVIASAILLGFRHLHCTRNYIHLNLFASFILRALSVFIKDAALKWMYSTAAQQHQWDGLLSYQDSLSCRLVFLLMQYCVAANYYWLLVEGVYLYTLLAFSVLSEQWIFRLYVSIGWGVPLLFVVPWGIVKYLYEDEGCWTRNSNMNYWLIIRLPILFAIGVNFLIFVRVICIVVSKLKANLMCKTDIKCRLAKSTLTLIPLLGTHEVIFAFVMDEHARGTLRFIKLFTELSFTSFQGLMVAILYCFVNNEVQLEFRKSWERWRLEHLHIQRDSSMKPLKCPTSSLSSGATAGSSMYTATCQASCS

Row | SMILES | pEC50 (Human GLP1R) | pEC50 (Human GlucR) | pEC50 (Human GIPr)
1 | CCCCCCCCCCCCCCCC(=O)N[C@@H](CCC(=O)NCCCC[C@H](NC(=O)CNC(=O)CNC(=O)[C@H](C)NC(=O)[C@H](CCC(=O)O)NC(=O)[C@H](CC(C)C)NC(=O)[C@H](Cc1c[nH]c2ccccc12)NC(=O)[C@H](CCC(N)=O)NC(=O)[C@@H](NC(=O)[C@H](Cc1ccccc1)NC(=O)[C@H](CC(=O)O)NC(=O)[C@H](CCC(N)=O)NC(=O)[C@H](C)NC(=O)[C@H](CCCNC(=N)N)NC(=O)[C@H](CCCNC(=N)N)NC(=O)[C@H](CO)NC(=O)[C@H](CC(=O)O)NC(=O)[C@H](CC(C)C)NC(=O)[C@H](Cc1ccc(O)cc1)NC(=O)[C@H](CCCCN)NC(=O)[C@H](CO)NC(=O)[C@H](Cc1ccc(O)cc1)NC(=O)[C@H](CC(=O)O)NC(=O)[C@H](CO)NC(=O)[C@@H](NC(=O)[C@H](Cc1ccccc1)NC(=O)[C@@H](NC(=O)CNC(=O)[C@H](CCC(N)=O)NC(=O)[C@H](CO)NC(=O)[C@@H](N)Cc1c[nH]cn1)[C@@H](C)O)[C@@H](C)O)C(C)C)C(N)=O)C(=O)O [g747] | 8.50 | 10.03 | 5.98
2 | CCCCCCCCCCCCCCCC(=O)NCCCCCC(=O)NCCCC[C@H](NC(=O)[C@H](CO)NC(=O)[C@H](CC(=O)O)NC(=O)[C@H](CC(C)C)NC(=O)[C@H](Cc1ccc(O)cc1)NC(=O)[C@H](CCC(=O)O)NC(=O)[C@H](CO)NC(=O)[C@H](Cc1ccc(O)cc1)NC(=O)[C@H](CC(=O)O)NC(=O)[C@H](CO)NC(=O)[C@@H](NC(=O)[C@H](Cc1ccccc1)NC(=O)[C@@H](NC(=O)CNC(=O)[C@H](CCC(N)=O)NC(=O)[C@H](CO)NC(=O)[C@@H](N)Cc1c[nH]cn1)[C@@H](C)O)[C@@H](C)O)C(=O)N[C@@H](CCCNC(=N)N)C(=O)N[C@@H](C)C(=O)N[C@@H](CCCNC(=N)N)C(=O)N[C@@H](CC(=O)O)C(=O)N[C@@H](Cc1ccccc1)C(=O)N[C@H](C(=O)N[C@@H](CCC(=O)O)C(=O)N[C@@H](Cc1c[nH]c2ccccc12)C(=O)N[C@@H](CC(C)C)C(=O)N[C@@H](CCC(=O)O)C(=O)N[C@@H](CCCNC(=N)N)C(=O)NCC(=O)NCC(N)=O)C(C)C [g771] (H-HSQGTFTSDYSEYLDSK([Ahx-Palmitoyl])RARDFVEWLERGG-NH2; N-terminus assumed) | 10.76 | 11.26 | 7.43
3 | CCCCCCCCCCCCCCCC(=O)N[C@@H](CCC(=O)NCCCC[C@H](NC(=O)[C@H](CO)NC(=O)[C@H](CC(=O)O)NC(=O)[C@H](CC(C)C)NC(=O)[C@H](Cc1ccc(O)cc1)NC(=O)[C@H](CCC(=O)O)NC(=O)[C@H](CO)NC(=O)[C@H](Cc1ccc(O)cc1)NC(=O)[C@H](CC(=O)O)NC(=O)[C@H](CO)NC(=O)[C@@H](NC(=O)[C@H](Cc1ccccc1)NC(=O)[C@@H](NC(=O)CNC(=O)[C@H](CCC(N)=O)NC(=O)[C@H](CO)NC(=O)[C@@H](N)Cc1c[nH]cn1)[C@@H](C)O)[C@@H](C)O)C(=O)N[C@@H](CCCNC(=N)N)C(=O)N[C@@H](C)C(=O)N[C@@H](CCCNC(=N)N)C(=O)N[C@@H](CC(=O)O)C(=O)N[C@@H](Cc1ccccc1)C(=O)N[C@H](C(=O)N[C@@H](C)C(=O)N[C@@H](Cc1c[nH]c2ccccc12)C(=O)N[C@@H](CC(C)C)C(=O)N[C@@H](CCC(=O)O)C(=O)N[C@@H](CCCNC(=N)N)C(=O)NCC(=O)NCC(N)=O)C(C)C)C(=O)O [g772] (H-HSQGTFTSDYSEYLDSK([γGlu-Palmitoyl])RARDFVAWLERGG-NH2; N-terminus assumed) | 9.53 | 9.74 | 5.81
4 | CCCCCCCCCCCCCCCC(=O)NCCC(=O)NCCCC[C@H](NC(=O)[C@H](CO)NC(=O)[C@H](CC(=O)O)NC(=O)[C@H](CC(C)C)NC(=O)[C@H](Cc1ccc(O)cc1)NC(=O)[C@H](CCC(=O)O)NC(=O)[C@H](CO)NC(=O)[C@H](Cc1ccc(O)cc1)NC(=O)[C@H](CC(=O)O)NC(=O)[C@H](CO)NC(=O)[C@@H](NC(=O)[C@H](Cc1ccccc1)NC(=O)[C@@H](NC(=O)CNC(=O)[C@H](CCC(N)=O)NC(=O)[C@H](CO)NC(=O)[C@@H](N)Cc1c[nH]cn1)[C@@H](C)O)[C@@H](C)O)C(=O)N[C@@H](CCCNC(=N)N)C(=O)N[C@@H](C)C(=O)N[C@@H](CCCNC(=N)N)C(=O)N[C@@H](CC(=O)O)C(=O)N[C@@H](Cc1ccccc1)C(=O)N[C@H](C(=O)N[C@@H](C)C(=O)N[C@@H](Cc1c[nH]c2ccccc12)C(=O)N[C@@H](CC(C)C)C(=O)N[C@@H](CCC(=O)O)C(=O)N[C@@H](C)C(=O)NCC(=O)NCC(N)=O)C(C)C [g783] (H-HSQGTFTSDYSEYLDSK([βAla-Palmitoyl])RARDFVAWLEAGG-NH2; N-terminus assumed) | 10.37 | 10.04 | 6.07

Now from value to compound:

Row | pEC50 (Human GLP1R) | pEC50 (Human GlucR) | pEC50 (Human GIPr) | SMILES
5 | 10.15 | 11.33 | 7.32 | CCCCCCCCCCCCCCCC(=O)N[C@@H](CCC(=O)NCCCC[C@H](NC(=O)[C@H](CO)NC(=O)[C@H](CC(=O)O)NC(=O)[C@H](CC(C)C)NC(=O)[C@H](Cc1ccc(O)cc1)NC(=O)[C@H](CCCCN)NC(=O)[C@H](CO)NC(=O)[C@H](Cc1ccc(O)cc1)NC(=O)[C@H](CC(=O)O)NC(=O)[C@H](CO)NC(=O)[C@@H](NC(=O)[C@H](Cc1ccccc1)NC(=O)[C@@H](NC(=O)CNC(=O)[C@H](CCC(N)=O)NC(=O)[C@H](CO)NC(=O)[C@@H](N)Cc1c[nH]cn1)[C@@H](C)O)[C@@H](C)O)C(=O)N[C@@H](CCCNC(=N)N)C(=O)N[C@@H](C)C(=O)N[C@@H](CCCNC(=N)N)C(=O)N[C@@H](CC(=O)O)C(=O)N[C@@H](Cc1ccccc1)C(=O)N[C@H](C(=O)N[C@@H](CCC(=O)O)C(=O)N[C@@H](Cc1c[nH]c2ccccc12)C(=O)N[C@@H](CC(C)C)C(=O)N[C@H](C(=O)N[C@@H](C)C(=O)NCC(=O)NCC(N)=O)C(C)C)C(C)C)C(=O)O [g766] (H-HSQGTFTSDYSKYLDSK([γGlu-Palmitoyl])RARDFVEWLVAGG-NH2; N-terminus assumed)
6 | 10.56 | 11.91 | 8.34 | CCCCCCCCCCCCCCCC(=O)N[C@@H](CCC(=O)NCCCC[C@H](NC(=O)[C@H](Cc1ccc(O)cc1)NC(=O)[C@H](CCCCN)NC(=O)[C@H](CO)NC(=O)[C@H](Cc1ccc(O)cc1)NC(=O)[C@H](CC(=O)O)NC(=O)[C@H](CO)NC(=O)[C@@H](NC(=O)[C@H](Cc1ccccc1)NC(=O)[C@@H](NC(=O)CNC(=O)[C@H](CCC(N)=O)NC(=O)[C@H](CO)NC(=O)[C@@H](N)Cc1c[nH]cn1)[C@@H](C)O)[C@@H](C)O)C(=O)N[C@@H](CC(=O)O)C(=O)N[C@@H](CO)C(=O)N[C@@H](CCC(=O)O)C(=O)N[C@@H](CCCNC(=N)N)C(=O)N[C@@H](C)C(=O)N[C@@H](CCCNC(=N)N)C(=O)N[C@@H](CC(=O)O)C(=O)N[C@@H](Cc1ccccc1)C(=O)N[C@H](C(=O)N[C@@H](C)C(=O)N[C@@H](Cc1c[nH]c2ccccc12)C(=O)N[C@@H](CC(C)C)C(=O)N[C@H](C(=O)N[C@@H](C)C(=O)NCC(=O)NCC(N)=O)C(C)C)C(C)C)C(=O)O [g777] (H-HSQGTFTSDYSKYK([γGlu-Palmitoyl])DSERARDFVAWLVAGG-NH2; N-terminus assumed)
7 | 9.98 | 11.55 | 6.40 | CCCCCCCCCCCCCCCC(=O)N[C@@H](CCC(=O)NCCCC[C@H](NC(=O)[C@H](CC(=O)O)NC(=O)[C@H](CC(C)C)NC(=O)[C@H](Cc1ccc(O)cc1)NC(=O)[C@H](CCCCN)NC(=O)[C@H](CO)NC(=O)[C@H](Cc1ccc(O)cc1)NC(=O)[C@H](CC(=O)O)NC(=O)[C@H](CO)NC(=O)[C@@H](NC(=O)[C@H](Cc1ccccc1)NC(=O)[C@@H](NC(=O)CNC(=O)[C@H](CCC(N)=O)NC(=O)[C@H](CO)NC(=O)[C@@H](N)Cc1c[nH]cn1)[C@@H](C)O)[C@@H](C)O)C(=O)N[C@@H](CCCNC(=N)N)C(=O)N[C@@H](CCCNC(=N)N)C(=O)N[C@@H](C)C(=O)N[C@@H](CCCNC(=N)N)C(=O)N[C@@H](CC(=O)O)C(=O)N[C@@H](Cc1ccccc1)C(=O)N[C@H](C(=O)N[C@@H](C)C(=O)N[C@@H](Cc1c[nH]c2ccccc12)C(=O)N[C@@H](CC(C)C)C(=O)N[C@@H](CCC(=O)O)C(=O)N[C@@H](C)C(=O)NCC(=O)NCC(N)=O)C(C)C)C(=O)O [g781] (H-HSQGTFTSDYSKYLDK([γGlu-Palmitoyl])RRARDFVAWLEAGG-NH2; N-terminus assumed)
8 | 10.60 | 9.81 | 5.84 | CCCCCCCCCCCCCCCC(=O)N[C@@H](CCC(=O)NCCCC[C@H](NC(=O)[C@H](CCCNC(=N)N)NC(=O)[C@H](CO)NC(=O)[C@H](CC(=O)O)NC(=O)[C@H](CC(C)C)NC(=O)[C@H](Cc1ccc(O)cc1)NC(=O)[C@H](CCCCN)NC(=O)[C@H](CO)NC(=O)[C@H](Cc1ccc(O)cc1)NC(=O)[C@H](CC(=O)O)NC(=O)[C@H](CO)NC(=O)[C@@H](NC(=O)[C@H](Cc1ccccc1)NC(=O)[C@@H](NC(=O)CNC(=O)[C@H](CCC(N)=O)NC(=O)[C@H](CO)NC(=O)[C@@H](N)Cc1c[nH]cn1)[C@@H](C)O)[C@@H](C)O)C(=O)N[C@@H](C)C(=O)N[C@@H](CCCNC(=N)N)C(=O)N[C@@H](CC(=O)O)C(=O)N[C@@H](Cc1ccccc1)C(=O)N[C@H](C(=O)N[C@@H](C)C(=O)N[C@@H](Cc1c[nH]c2ccccc12)C(=O)N[C@@H](CC(C)C)C(=O)N[C@@H](CCC(=O)O)C(=O)N[C@@H](C)C(=O)NCC(=O)NCC(N)=O)C(C)C)C(=O)O [g782] (H-HSQGTFTSDYSKYLDSRK([γGlu-Palmitoyl])ARDFVAWLEAGG-NH2; N-terminus assumed)
